Values of other authors as cited in patent publication US20240360088A1, “WATER-SOLUBLE NERVE DYES FOR IN VIVO NERVE-SPECIFIC IMAGING” (Oregon Health & Science University, priority 2021, published 2024).

Test system: rodent nerves
Details: for nerve specificity: direct and systemic administration, preclinical

| SMILES | fluorescence signal for real time imaging (co-solvent formulation as vehicle for intravenous injection) | nerve specificity | nerve-specific signal (systemic administration) |
| --- | --- | --- | --- |
| CCNc1cc2oc3cc(=[N+](CC)CC)ccc-3nc2cc1C [Comparative Example No. 1, 3-(diethyl-14-azaneylidene)-N-ethyl-8-methyl-3H-phenoxazin-7-amine] | adequate fluorescence signal | high nerve specificity |  |
| CC/N=c1/cc2oc3cc(NCC)c(C)cc3nc-2cc1C [Oxazine 4] |  | high nerve specificity | nerve-specific signal following systemic administration in all rodent nerves |
